Test results reported in US12077503B2, “Substituted cyclic amides and their use as herbicides” (FMC CORPORATION, priority 2015, dated 2024).

Tests used:
Format in all cases: in vivo
[1] = tested on: ragweed (common ragweed, Ambrosia elatior); test: Test A preemergence; conditions: Ambrosia artemisiifolia, pre-emergence, 240 h, preemergence, read-out: Ragweed plant response rating; for pest or weed control at 500 g/ha: 500 g ai/ha, visual injury rating about 10 d after treatment, 0 to 100 scale (0 no effect, 100 complete control)
Procedure, shortened: (§1)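 Visual injury, scored on a 0–100 scale relative to untreated controls, was recorded about 10 d after application. Treatments were a preemergence soil spray over planted seeds or a postemergence spray on plants at the one- to two-leaf stage, 2 to 10 cm tall, all in loam soil–sand blend in the greenhouse.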

[2] = tested on: barnyardgrass (Echinochloa crus-galli); test: Test A preemergence; conditions: Echinochloa crus-galli, pre-emergence, 240 h, preemergence, read-out: Barnyardgrass plant response rating; for pest or weed control at 125 g/ha: 125 g ai/ha, 0 to 100 scale where 0 is no effect and 100 is complete control; for pest or weed control at 500 g/ha: 500 g ai/ha, visual injury rating about 10 d after treatment, 0 to 100 scale (0 no effect, 100 complete control)
Procedure, shortened: as §1

Kochia (Kochia scoparia) [3] = test: Test A preemergence; conditions: Bassia scoparia, pre-emergence, 240 h, preemergence, read-out: Kochia plant response rating; for pest or weed control at 125 g/ha: 125 g ai/ha, 0 to 100 scale where 0 is no effect and 100 is complete control; for pest or weed control at 500 g/ha: 500 g ai/ha, visual injury rating about 10 d after treatment, 0 to 100 scale (0 no effect, 100 complete control)
Procedure, shortened: as §1

[4] = tested on: pigweed (Amaranthus retroflexus); test: Test A preemergence; conditions: Amaranthus retroflexus, pre-emergence, 240 h, preemergence, read-out: Pigweed plant response rating; for pest or weed control at 125 g/ha: 125 g ai/ha, 0 to 100 scale where 0 is no effect and 100 is complete control; for pest or weed control at 500 g/ha: 500 g ai/ha, visual injury rating about 10 d after treatment, 0 to 100 scale (0 no effect, 100 complete control)
[5] = tested on: ryegrass, Italian (Italian ryegrass, Lolium multiflorum); test: Test A preemergence; conditions: Lolium multiflorum, pre-emergence, 240 h, preemergence, read-out: Ryegrass, Italian plant response rating; for pest or weed control at 500 g/ha: 500 g ai/ha, visual injury rating about 10 d after treatment, 0 to 100 scale (0 no effect, 100 complete control)
Procedure, shortened: as §1

[6] = tested on: giant foxtail (Setaria faberii); test: Test A preemergence; conditions: Setaria faberi, pre-emergence, 240 h, preemergence, read-out: Foxtail, Giant plant response rating; for pest or weed control at 125 g/ha: 125 g ai/ha, 0 to 100 scale where 0 is no effect and 100 is complete control; for pest or weed control at 500 g/ha: 500 g ai/ha, visual injury rating about 10 d after treatment, 0 to 100 scale (0 no effect, 100 complete control)
Procedure, shortened: as §1

[7] = tested on: barnyardgrass (Echinochloa crus-galli); test: Test A postemergence; conditions: Echinochloa crus-galli, post-emergence, 240 h, 125 g ai/ha, Postemergence; visual injury after approximately 10 d; 0 to 100 scale where 0 is no effect and 100 is complete control; read-out: Plant response rating, Barnyardgrass
Procedure, shortened: as §1

Kochia (Kochia scoparia) [8] = test: Test A postemergence; conditions: Bassia scoparia, post-emergence, 240 h, 125 g ai/ha, Postemergence; visual injury after approximately 10 d; 0 to 100 scale where 0 is no effect and 100 is complete control; read-out: Plant response rating, Kochia
Procedure, shortened: as §1

[9] = tested on: Galium (catchweed bedstraw, Galium aparine); test: Test A postemergence; conditions: Galium, post-emergence, 240 h, 125 g ai/ha, Postemergence; visual injury after approximately 10 d; 0 to 100 scale where 0 is no effect and 100 is complete control; read-out: Plant response rating, Galium
Procedure, shortened: as §1

corn (Zea mays) = test: Test A postemergence; conditions: Zea mays, post-emergence, 240 h, 125 g ai/ha, Postemergence; visual injury after approximately 10 d; 0 to 100 scale where 0 is no effect and 100 is complete control
Procedure, shortened: as §1

[10] = tested on: pigweed (Amaranthus retroflexus); test: Test A postemergence; conditions: Amaranthus retroflexus, post-emergence, 240 h, 125 g ai/ha, Postemergence; visual injury after approximately 10 d; 0 to 100 scale where 0 is no effect and 100 is complete control; read-out: Plant response rating, Pigweed
Procedure, shortened: as §1

[11] = tested on: ducksalad (Heteranthera limosa); test: Test B flooded paddy test; conditions: Heteranthera limosa, Flood, 250 g ai/ha; scale of 0 to 100 where 0 is no effect and 100 is complete control; read-out: Ducksalad plant response rating
Procedure, shortened: (§2)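 Percent control, visually estimated after 13–15 d in the greenhouse on a 0–100 basis, compares treated pots with untreated ones; compound was put into paddy water 3 cm above the soil when plants had two leaves.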

[12] = tested on: barnyardgrass (Echinochloa crus-galli); test: Test B flooded paddy test; conditions: Echinochloa crus-galli, Flood, 250 g ai/ha; scale of 0 to 100 where 0 is no effect and 100 is complete control; read-out: Barnyardgrass plant response rating
Procedure, shortened: as §2

[13] = tested on: sedge, umbrella (small-flower umbrella sedge, Cyperus difformis); test: Test B flooded paddy test; conditions: Cyperus difformis, Flood, 250 g ai/ha; scale of 0 to 100 where 0 is no effect and 100 is complete control; read-out: Sedge, Umbrella plant response rating
Procedure, shortened: as §2

rice (Oryra sativa) = test: Test B flooded paddy test; conditions: Oryza sativa, Flood, 250 g ai/ha; scale of 0 to 100 where 0 is no effect and 100 is complete control; read-out: Rice plant response rating
Procedure, shortened: as §2

[14] = 125 g ai/ha, 0 to 100 scale where 0 is no effect and 100 is complete control

| SMILES | pest or weed control at 500 g/ha [1] [%] | pest or weed control at 125 g/ha [2] [%] | pest or weed control at 500 g/ha [2] [%] | pest or weed control at 125 g/ha (Kochia (Kochia scoparia) [3]) [%] | pest or weed control at 500 g/ha (Kochia (Kochia scoparia) [3]) [%] | pest or weed control at 125 g/ha [4] [%] | pest or weed control at 500 g/ha [4] [%] | pest or weed control at 500 g/ha [5] [%] | pest or weed control at 125 g/ha [6] [%] | pest or weed control at 500 g/ha [6] [%] | pest or weed control at 125 g/ha [7] [%] | pest or weed control at 125 g/ha (Kochia (Kochia scoparia) [8]) [%] | pest or weed control at 125 g/ha [9] [%] | Corn plant response rating (crop injury, 0 = no effect, 100 = complete kill) at 125 g/ha (corn (Zea mays)) [%] | pest or weed control at 125 g/ha [10] [%] | pest or weed control at 250 g/ha [11] [%] | pest or weed control at 250 g/ha [12] [%] | pest or weed control at 250 g/ha [13] [%] | pest or weed control at 250 g/ha (rice (Oryra sativa)) [%] | also measured |
| --- | --- | --- | --- | --- | --- | --- | --- | --- | --- | --- | --- | --- | --- | --- | --- | --- | --- | --- | --- | --- |
| Cc1cc([C@H]2CN(C)C(=O)[C@@H]2C(=O)Nc2ccccc2F)ccc1Cl [Compound 928] | 0 | 90 | 90 | 80 | 80 | 0 | 20 | 70 | 90 | 90 | 90 | 40 | 50 | 40 | 20 | 80 | 55 | 0 | 0 | pest or weed control at 125 g/ha [1, 14]: 0%; pest or weed control at 125 g/ha [5, 14]: 40% |
| Cc1cc([C@H]2CN(C)C(=O)[C@@H]2C(=O)Nc2ccc(F)cc2F)ccc1Cl [Compound 930] | 0 | 90 | 90 | 70 | 90 | 20 | 30 | 70 | 90 | 90 | 80 | 20 | 40 | 40 | 30 | 80 | 50 | 0 | 0 |  |
| CN1C[C@H](c2ccc(C(F)(F)F)cc2)[C@@H](C(=O)Nc2ccc(F)cc2Br)C1=O [Compound 934] | 30 | 70 | 90 | 50 | 80 | 0 | 80 | 60 | 90 | 90 | 60 | 20 | 60 | 20 | 20 | 60 | 0 | 0 | 0 |  |
| Cc1cc(F)ccc1NC(=O)[C@H]1C(=O)N(C)C[C@@H]1c1ccc(C(F)(F)F)cc1 [Compound 936] | 50 | 70 | 90 | 60 | 90 | 20 | 80 | 70 | 90 | 90 | 60 | 20 | 40 | 30 | 20 | 85 | 0 | 0 | 0 |  |
| Cc1cccc(NC(=O)[C@H]2C(=O)N(C)C[C@@H]2c2ccc(C(F)(F)F)cc2)c1F [Compound 939] | 50 | 90 | 90 | 30 | 60 | 0 | 0 | 20 | 90 | 90 | 80 | 0 | 20 | 0 | 0 | 40 | 0 | 0 | 0 |  |
| Cc1cccc(NC(=O)[C@H]2C(=O)N(C)C[C@@H]2c2ccc(C(F)(F)F)cc2)c1C [Compound 941] | 30 | 80 | 90 | 0 | 0 | 0 | 0 | 0 | 90 | 90 | 50 | 0 | 20 | 0 | 0 | 35 | 0 | 0 | 0 |  |
| CN1C[C@H](c2ccc(C(F)(F)F)cc2)[C@@H](C(=O)Nc2ccc(F)cc2C(F)(F)F)C1=O [Compound 942] | 50 | 70 | 90 | 70 | 90 | 80 | 90 | 20 | 90 | 90 | 60 | 30 | 50 | 0 | 70 | 40 | 0 | 0 | 0 |  |
